Data on 2 molecules can be found in ChEMBL document CHEMBL1133253, “Improved antibacterial activities of coumarin antibiotics bearing 5',5'-dialkylnoviose: biological activity of RU79115” (Bioorg Med Chem Lett, 2000).

The structures appear in SMILES notation. ≈ marks a conversion by molar mass, not a printed value.

By MIC is commonly meant the lowest concentration that inhibits growth of the organism. Lower therefore signals a more susceptible organism.

The test system of one assay is Enterococcus faecium. Nature of the assay: Tested for in vitro antibacterial activity against Enterococcus faecium 02D31P2 vancomycin teicoplanin erythromycin resistance phenotype. It is filed as functional.
For assay [1], the system named is Staphylococcus aureus. Nature of the assay: IC50 was determined for gyrase B of Staphylococcus aureus against novobiocin (0.5 mg/mL) as reference; IC50nov/IC50comp.
In assay [2] the test system is Staphylococcus epidermidis. Nature of the assay: Tested for in vitro antibacterial activity against Staphylococcus epidermidis 012GO42 oxacillin resistance phenotype. In kind it is functional.
The test system of assay [3] is Staphylococcus aureus. Nature of the assay: Tested for in vitro antibacterial activity against Staphylococcus aureus 011 HT3 phenotype. In kind it is functional.
A further assay has as its system Streptococcus pyogenes. Nature of the assay: Tested for in vitro antibacterial activity against Streptococcus pyogenes O2A1UC1 phenotype. It is filed as functional.
Assay [4] deals with Staphylococcus aureus. Nature of the assay: Tested for in vitro antibacterial activity against Staphylococcus aureus 011 HT1 novobiocin resistance phenotype. It is filed as functional.
In assay [5] the test system is Staphylococcus aureus. Nature of the assay: Tested for in vitro antibacterial activity against Staphylococcus aureus 011 GO64 ofloxacin oxacillin erythromycin resistance phenotype. In kind it is functional.

For `C#CCONC(=O)O[C@H]1[C@@H](O)[C@H](Oc2ccc3c(=O)c(/C(C)=N/OC)c(O)oc3c2C)O[C@@](C)(CC=C)[C@@H]1OC`, the MIC in the assay with Enterococcus faecium is 0.6 µg/mL (≈ 1.07 µM); in assay [2] it was below 0.04 µg/mL; with Staphylococcus aureus [3], below 0.04 µg/mL; against Streptococcus pyogenes, 0.3 µg/mL (≈ 0.535 µM); in the assay with Staphylococcus aureus [4] it was 1.2 µg/mL (≈ 2.14 µM). Moreover, the Ratio with Staphylococcus aureus [1] was 2.6.

`C#CCONC(=O)O[C@H]1[C@@H](O)[C@H](Oc2ccc3c(=O)c(/C(C)=N/OC)c(O)oc3c2C)OC2(CCCCC2)[C@@H]1OC`: the minimum inhibitory concentration (MIC) with Enterococcus faecium was 0.15 µg/mL (≈ 0.261 µM); in assay [2], below 0.04 µg/mL; with Staphylococcus aureus [3] it was below 0.04 µg/mL; against Staphylococcus aureus [5], 0.15 µg/mL (≈ 0.261 µM); against Streptococcus pyogenes it was 0.6 µg/mL (≈ 1.04 µM); in the assay with Staphylococcus aureus [4], 0.6 µg/mL (≈ 1.04 µM). In the assay with Staphylococcus aureus [1], the Ratio is 2.6.
